Key:
[1] = test system: T-Rex 293 cell line SC cells having increased expression of progesterone receptor isoform B protein; experiment: Cellular growth inhibition assay, T-Rex 293 SC cells exposed to doxycycline (increased progesterone receptor isoform B expression), CellTiter-Glo; type: cell-based; settings: T-Rex 293 SC cells with 10 ng/mL doxycycline (increased PR isoform B), 72 hours
Method: The SC cells were seeded on poly-D-lysine coated, black clear-bottom 384-well plates at 2500/well, in 25 μL Phenol Red Free Dulbecco's Modified Eagle Medium (DMEM) supplemented with 10% w/w charcoal-dextran treated fetal bovine serum (FBS) and 1% w/w pen-strep, with or without 10 ng/mL doxycycline. Pen-Strep is a commercially available mixture of penicillin G and streptomycin, which is used in mammalian cell culture media to prevent bacterial contamination. Phenol Red Free Dulbecco's Modified Eagle Medium (DMEM) supplemented with 10% w/w charcoal-dextran treated fetal bovine serum (FBS) and 1% w/w pen-strep, with or without 10 ng/mL doxycycline is herein referred to as Treatment Medium. Following seeding of cells in the plates, the plates were spun at 300×g for 30 seconds, then equilibrated to room temperature for 30 minutes, and then deposited in a humidified tissue culture incubator maintained at 37° C. with 5% CO2.
At 24 hours after seeding of the cells, dilutions of test compound were prepared in DMSO and dissolved in Treatment Medium, to achieve a final DMSO concentration of 0.5% w/w, thereby providing the Test Compound Solution. A 25 μL aliquot of the Test Compound Solution was added to cells in the well plates. An equal volume of a solution containing DMSO and Treatment Medium was used as a negative control. Following treatment of cells with Test Compound Solution or said equal volume of a solution containing DMSO and Treatment Medium, the plates were spun at 300×g for 30 seconds, and then left in an incubator for 72 hours.
At the end of the treatment duration, cell viability was quantified with CellTiter-Glo 2.0 reagent (Promega Cat #G9243). For this purpose, plates were equilibrated to room temperature for 30 minutes, and then 25 μL of CellTiter-Glo 2.0 reagent was added to cells in the plate wells. Plates were then agitated on a shaker for two minutes at 500 rpm and subsequently incubated at room temperature for 10 minutes. Following incubation, the plates were spun at 3000×g for 30 seconds, then sealed with an optical adhesive cover, and luminescence readings were measured with an EnVision Plate Reader (Perkin Elmer).
Data was normalized using zero luminescence for baseline. A four-parameter non-linear regression curve fit was applied to dose-response data in GraphPad Prism data analysis software to determine the half-maximal growth inhibitory concentration (GI50) for each test compound.

[2] = target: T1, progesterone receptor ligand binding domain (GST-tagged PR LBD) (Homo sapiens, UniProt P06401); experiment: FP Assay for Binding Affinity to Progesterone Receptor (PolarScreen Progesterone Receptor Competitor Assay Kit); settings: fluorescence polarization, Fluormone tracer, 2 hours at room temperature
T1 construct: purchased Life Technologies A15905 or a15906
T1 sequence (P06401 679-913 limits assumed): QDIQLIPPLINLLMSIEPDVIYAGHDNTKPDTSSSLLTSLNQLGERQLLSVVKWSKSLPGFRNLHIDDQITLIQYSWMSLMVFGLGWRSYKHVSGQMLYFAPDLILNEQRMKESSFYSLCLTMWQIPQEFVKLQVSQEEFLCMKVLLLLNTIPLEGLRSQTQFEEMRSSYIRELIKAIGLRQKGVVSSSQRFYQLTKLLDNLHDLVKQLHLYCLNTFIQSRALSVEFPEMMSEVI
Method: Exemplary compounds were tested for ability to bind to the progesterone receptor ligand binding domain (LBD).
Compounds were tested using the PolarScreen™ Progesterone Receptor Competitor Assay Kit (Life Technologies Cat #A15905 or a15906), as per the manufacturer's instructions. Briefly, GST-tagged PR LBD, Fluormone tracer, and compound were mixed and incubated for 2 hours at room temperature in the dark. Following incubation, the plates were spun at 3000×g for 30 seconds, then sealed with an optical adhesive cover, and fluorescence polarization was measured using appropriate excitation and emission filters with an EnVision Plate Reader (Perkin Elmer). Compound concentration vs. mP value were plotted in Prism (GraphPad). A four-parameter non-linear regression curve fit was applied to dose-response data to determine the half-maximal inhibitory concentration (IC50) for each test compound.

IC50 [2] [nM] | SMILES | GI50 [1] [nM]
– | CCS(=O)(=O)Nc1ccc(Oc2cccc(OCCOC3CCN(c4ncc(C(=O)N[C@H]5C(C)(C)[C@H](Oc6ccc(C#N)c(Cl)c6)C5(C)C)cn4)CC3)c2)c(-c2cn(C)c(=O)c3[nH]ccc23)c1 [Compound I-6] | < 500
– | CCS(=O)(=O)Nc1ccc(Oc2cccc(OCCOCCOCCOC3CCN(c4ncc(C(=O)N[C@H]5C(C)(C)[C@H](Oc6ccc(C#N)c(Cl)c6)C5(C)C)cn4)CC3)c2)c(-c2cn(C)c(=O)c3[nH]ccc23)c1 [Compound I-7] | < 500
500 to 2500 | CCS(=O)(=O)Nc1ccc(Oc2cccc(N3CC4(CN(CC5CCN(c6ncc(C(=O)N[C@H]7C(C)(C)[C@H](Oc8ccc(C#N)c(Cl)c8)C7(C)C)cn6)CC5)C4)C3)c2)c(-c2cn(C)c(=O)c3[nH]ccc23)c1 [Compound I-35, N-((1r, 3r)-3-(3-chloro-4-cyanophenoxy)-2,2,4,4-tetramethylcyclobutyl)-2-(4-((6-(3-(4-(ethylsulfonamido)-2-(6-methyl-7-oxo-6,7-dihydro-1H-pyrrolo[2,3-c]pyridin-4-yl)phenoxy)phenyl)-2,6-diazaspiro[3.3]heptan-2-yl)methyl)piperidin-1-yl)pyrimidine-5-carboxamide] | < 500
> 2500 | CCS(=O)(=O)Nc1ccc(Oc2cccc(OC3CCC4(CC3)CCN(c3ncc(C(=O)N[C@H]5C(C)(C)[C@H](Oc6ccc(C#N)c(Cl)c6)C5(C)C)cn3)CC4)c2)c(-c2cn(C)c(=O)c3[nH]ccc23)c1 [Compound I-45] | < 500
– | CCS(=O)(=O)Nc1ccc(Oc2ccc(F)c(OCCOC3CCN(c4ncc(C(=O)N[C@H]5C(C)(C)[C@H](Oc6ccc(C#N)c(Cl)c6)C5(C)C)cn4)CC3)c2F)c(-c2cn(C)c(=O)c3[nH]ccc23)c1 [Compound I-65] | < 500
> 2500 | CCS(=O)(=O)Nc1ccc(Oc2cccc(N3CC(OC4CCN(c5ncc(C(=O)N[C@H]6C(C)(C)[C@H](Oc7ccc(C#N)c(Cl)c7)C6(C)C)cn5)CC4)C3)c2)c(-c2cn(C)c(=O)c3[nH]ccc23)c1 [Compound I-80] | –
– | Cn1cc(-c2cc(C(C)(C)O)ccc2Oc2cccc(N3CC(N4CCN(c5ncc(C(=O)N[C@H]6C(C)(C)[C@H](Oc7ccc(C#N)c(Cl)c7)C6(C)C)cn5)CC4)C3)c2F)c2cc[nH]c2c1=O [Compound I-92, N-((1r, 3r)-3-(3-chloro-4-cyanophenoxy)-2,2,4,4-tetramethylcyclobutyl)-2-(4-(1-(2-fluoro-3-(4-(2-hydroxypropan-2-yl)-2-(6-methyl-7-oxo-6,7-dihydro-1H-pyrrolo[2,3-c]pyridin-4-yl)phenoxy)phenyl)azetidin-3-yl)piperazin-1-yl)pyrimidine-5-carboxamide] | < 500
> 2500 | CCS(=O)(=O)Nc1ccc(Oc2cccc(OC3CC(C4CCN(c5ncc(C(=O)N[C@H]6C(C)(C)[C@H](Oc7ccc(C#N)c(Cl)c7)C6(C)C)cn5)CC4)C3)c2)c(-c2cn(C)c(=O)c3[nH]ccc23)c1 (stereo partly shown) [Compound I-104] | < 500
– | Cn1cc(-c2cc(C(C)(C)O)ccc2Oc2cccc(N3CC(OC4CCN(c5ncc(C(=O)N[C@H]6C(C)(C)[C@H](Oc7ccc(C#N)c(Cl)c7)C6(C)C)cn5)CC4)C3)c2F)c2cc[nH]c2c1=O [Compound I-190] | < 500
– | Cc1ccc(CCCOC2CCN(c3ncc(C(=O)N[C@H]4C(C)(C)[C@H](Oc5ccc(C#N)c(Cl)c5)C4(C)C)cn3)CC2)c(C)c1Oc1ccc(C(C)(C)O)cc1-c1cn(C)c(=O)c2[nH]ccc12 [Compound I-195] | < 500
– | Cn1cc(-c2cc(C(C)(C)O)ccc2Oc2cccc(N3CC(CC4CCN(c5ncc(C(=O)N[C@H]6C(C)(C)[C@H](Oc7ccc(C#N)c(Cl)c7)C6(C)C)cn5)CC4)C3)c2F)c2cc[nH]c2c1=O [Compound I-196] | < 500
– | CN(c1ccc(Oc2ccc(C(C)(C)O)cc2-c2cn(C)c(=O)c3[nH]ccc23)cc1)C1CCN(c2ncc(C(=O)N[C@H]3C(C)(C)[C@H](Oc4ccc(C#N)c(Cl)c4)C3(C)C)cn2)CC1 [Compound I-197] | < 500
> 2500 | Cn1cc(-c2cc(C(C)(C)O)ccc2Oc2ccc(CC3CCN(c4ncc(C(=O)N[C@H]5C(C)(C)[C@H](Oc6ccc(C#N)c(Cl)c6)C5(C)C)cn4)CC3)cc2)c2cc[nH]c2c1=O [Compound I-201] | < 500
> 2500 | Cn1cc(-c2cc(C(C)(C)O)ccc2Oc2ccc(OCC3CCN(c4ncc(C(=O)N[C@H]5C(C)(C)[C@H](Oc6ccc(C#N)c(Cl)c6)C5(C)C)cn4)CC3)cc2)c2cc[nH]c2c1=O [Compound I-202] | < 500
50 to 500 | Cn1cc(-c2cc(C(C)(C)O)ccc2Oc2ccc(OCCN3CCN(c4ncc(C(=O)N[C@H]5C(C)(C)[C@H](Oc6ccc(C#N)c(Cl)c6)C5(C)C)cn4)CC3)cc2)c2cc[nH]c2c1=O [Compound I-204] | < 500
50 to 500 | CN(C1CCN(c2ncc(C(=O)N[C@H]3C(C)(C)[C@H](Oc4ccc(C#N)c(Cl)c4)C3(C)C)cn2)CC1)C1CN(c2ccc(Oc3ccc(C(C)(C)O)cc3-c3cn(C)c(=O)c4[nH]ccc34)cc2)C1 [Compound I-208] | < 500
< 50 | CC(C)N(CC1CCN(c2ncc(C(=O)N[C@H]3C(C)(C)[C@H](Oc4ccc(C#N)c(Cl)c4)C3(C)C)cn2)CC1)[C@H]1C[C@H](Oc2cccc(Oc3ccc(C(C)(C)O)cc3-c3cn(C)c(=O)c4[nH]ccc34)c2F)C1 [Compound I-214] | –
50 to 500 | Cn1cc(-c2cc(C(C)(C)O)ccc2Oc2ccc(N3CC(OC4CCN(c5ncc(C(=O)N[C@H]6C(C)(C)[C@H](Oc7ccc(C#N)c(Cl)c7)C6(C)C)cn5)CC4)C3)cc2)c2cc[nH]c2c1=O [Compound I-219] | < 500
50 to 500 | CCS(=O)(=O)c1ccc(Oc2ccc(OCC3CCN(c4ncc5c(n4)CN([C@H]4C(C)(C)[C@H](Cc6ccc(C#N)c(Cl)c6)C4(C)C)C5=O)CC3)cc2)c(-c2cn(C)c(=O)c3[nH]ccc23)c1 [Compound I-220] | < 500
50 to 500 | CC(C)N(C1CCN(c2ncc(C(=O)N[C@H]3C(C)(C)[C@H](Oc4ccc(C#N)c(Cl)c4)C3(C)C)cn2)CC1)C1CN(c2cccc(Oc3ccc(C(C)(C)O)cc3-c3cn(C)c(=O)c4[nH]ccc34)c2F)C1 [Compound I-221] | < 500
50 to 500 | Cn1cc(-c2cc(C(C)(C)O)ccc2Oc2ccc(N3CC(CN4CC5CC4CN5c4ncc(C(=O)N[C@H]5C(C)(C)[C@H](Oc6ccc(C#N)c(Cl)c6)C5(C)C)cn4)C3)cc2)c2cc[nH]c2c1=O (stereo partly shown) [Compound I-228] | < 500
50 to 500 | CN(C1CN(c2ccc(Oc3ccc(C(C)(C)O)cc3-c3cn(C)c(=O)c4[nH]ccc34)cc2)C1)C1CN(c2ncc(C(=O)N[C@H]3C(C)(C)[C@H](Oc4ccc(C#N)c(Cl)c4)C3(C)C)cn2)C1 [Compound I-238] | < 500
50 to 500 | CN(CC1CCN(c2ncc(C(=O)N[C@H]3C(C)(C)[C@H](Oc4ccc(C#N)c(Cl)c4)C3(C)C)cn2)CC1)C1(c2ccc(Oc3ccc(C(C)(C)O)cc3-c3cn(C)c(=O)c4[nH]ccc34)cc2)COC1 [Compound I-255] | < 500
50 to 500 | Cn1cc(-c2cc(C(C)(C)O)ccc2Oc2ccc(CCCC3CC4(C3)CN(c3ncc(C(=O)N[C@H]5C(C)(C)[C@H](Oc6ccc(C#N)c(Cl)c6)C5(C)C)cn3)C4)cc2)c2cc[nH]c2c1=O [Compound I-268] | < 500
50 to 500 | Cn1cc(-c2cc(C(C)(C)O)ccc2Oc2ccc(N3CC(CC4CN(c5ncc(C(=O)N[C@H]6C(C)(C)[C@H](Oc7ccc(C#N)c(Cl)c7)C6(C)C)cn5)C4)C3)cc2)c2cc[nH]c2c1=O [Compound I-280] | < 500
